Test results from the NIST ThermoML archive (doi:10.1021/je100693c).
Where “and” joins values, the source holds several entries; their conditions need not be identical. Equal values may be shown once. Numbers after ± are expanded uncertainties.

Legend:
[1] = 101 kPa, Liquid, Vibrating tube method
[2] = xn = mol fraction of the nth substance listed; details: 101 kPa, Liquid, Vibrating tube method
[3] = excess molar enthalpy (molar enthalpy of mixing); xn = mol fraction of the nth substance listed; details: 101 kPa, Liquid

Compound `CCCCn1cc[n+](C)c1.F[B-](F)(F)F` [1-butyl-3-methylimidazolium tetrafluoroborate] has a mass density ([1]; 283.15 K) of 1213.3 ± 2.8 kg/m3, a mass density ([1]; 293.15 K) of 1205.9 ± 2.8 kg/m3 and a mass density ([1]; 303.15 K) of 1198.6 ± 2.8 kg/m3. It also gave a mass density ([1]; 313.15 K) of 1191.4 ± 2.7 kg/m3, a mass density ([1]; 323.15 K) of 1184.4 ± 2.7 kg/m3 and a mass density ([1]; 333.15 K) of 1177.4 ± 2.7 kg/m3.

`CCCCn1cc[n+](C)c1.F[B-](F)(F)F` [1-butyl-3-methylimidazolium tetrafluoroborate] + OCC(F)(F)F gave a mass density ([2]; 283.15 K, x1 = 1) of 1213.3 ± 2.8 kg/m3, a mass density ([2]; 293.15 K, x1 = 1) of 1205.9 ± 2.8 kg/m3 and a mass density ([2]; 303.15 K, x1 = 1) of 1198.6 ± 2.8 kg/m3. It also gave a mass density ([2]; 313.15 K, x1 = 1) of 1191.4 ± 2.7 kg/m3, a mass density ([2]; 323.15 K, x1 = 1) of 1184.4 ± 2.7 kg/m3 and a mass density ([2]; 333.15 K, x1 = 1) of 1177.4 ± 2.7 kg/m3.

Compound `CCn1cc[n+](C)c1.F[B-](F)(F)F` [1-ethyl-3-methylimidazolium tetrafluoroborate] has a mass density ([1]; 293.1 K) of 1284.3 ± 3.2 kg/m3, a mass density ([1]; 303.11 K) of 1276.5 ± 3.2 kg/m3 and a mass density ([1]; 313.15 K) of 1269.2 ± 3.1 kg/m3. It also gave a mass density ([1]; 323.14 K) of 1261.8 ± 3.1 kg/m3 and a mass density ([1]; 333.23 K) of 1254.6 ± 3 kg/m3.

`CCn1cc[n+](C)c1.F[B-](F)(F)F` [1-ethyl-3-methylimidazolium tetrafluoroborate] + OCC(F)(F)F showed a mass density ([2]; 293.1 K, x1 = 1) of 1284.3 ± 3.2 kg/m3, a mass density ([2]; 303.11 K, x1 = 1) of 1276.5 ± 3.2 kg/m3 and a mass density ([2]; 313.15 K, x1 = 1) of 1269.2 ± 3.1 kg/m3. The mass density ([2]; 323.14 K, x1 = 1) was 1261.8 ± 3.1 kg/m3 and the mass density ([2]; 333.23 K, x1 = 1) was 1254.6 ± 3 kg/m3.

`OCC(F)(F)F` [2,2,2-trifluoroethanol] gave a mass density ([1]; 283.15 K) of 1408.2 ± 0.8 kg/m3, a mass density ([1]; 293.14 K) of 1389.7 ± 0.8 kg/m3 and a mass density ([1]; 293.15 K) of 1391.1 ± 0.8 kg/m3. For the same compound, the mass density ([1]; 303.15 K) was 1373.8 ± 0.8 kg/m3, the mass density ([1]; 303.19 K) was 1372.4 ± 0.8 kg/m3 and the mass density ([1]; 313.15 K) was 1356.1 ± 0.8 kg/m3 and 1354.8 ± 0.8 kg/m3. The mass density ([1]; 323.15 K) was 1338 ± 0.8 kg/m3 and 1336.6 ± 0.8 kg/m3 and the mass density ([1]; 333.15 K) was 1317.8 ± 0.8 kg/m3 and 1319.1 ± 0.8 kg/m3.

For `OCC(F)(F)F` [2,2,2-trifluoroethanol] + CCn1cc[n+](C)c1.F[B-](F)(F)F, the mass density ([2]; 293.14 K, x2 = 0) was 1389.7 ± 0.8 kg/m3, the mass density ([2]; 293.14 K, x2 = 0.755) was 1299.6 ± 1.9 kg/m3 and the mass density ([2]; 293.15 K, x2 = 0.099) was 1373.3 ± 0.8 kg/m3. For the same compound, the mass density ([2]; 293.16 K, x2 = 0.305) was 1340.6 ± 0.9 kg/m3, the mass density ([2]; 293.17 K, x2 = 0.5164) was 1318.4 ± 1.2 kg/m3 and the mass density ([2]; 303.16 K, x2 = 0.5164) was 1308.9 ± 1.2 kg/m3. The mass density ([2]; 303.17 K, x2 = 0.099) was 1359.1 ± 0.8 kg/m3, the mass density ([2]; 303.17 K, x2 = 0.755) was 1291.3 ± 1.9 kg/m3 and the mass density ([2]; 303.18 K, x2 = 0.305) was 1329.4 ± 0.9 kg/m3. For the same compound, the mass density ([2]; 303.19 K, x2 = 0) was 1372.4 ± 0.8 kg/m3, the mass density ([2]; 313.15 K, x2 = 0) was 1354.8 ± 0.8 kg/m3 and the mass density ([2]; 313.15 K, x2 = 0.099) was 1344.7 ± 0.8 kg/m3. For the same compound, the mass density ([2]; 313.16 K, x2 = 0.305) was 1318.4 ± 0.9 kg/m3, the mass density ([2]; 313.16 K, x2 = 0.755) was 1282.9 ± 1.9 kg/m3 and the mass density ([2]; 313.19 K, x2 = 0.5164) was 1299.3 ± 1.2 kg/m3. It also gave a mass density ([2]; 323.12 K, x2 = 0.099) of 1330.5 ± 0.8 kg/m3, a mass density ([2]; 323.14 K, x2 = 0.5164) of 1290.2 ± 1.2 kg/m3 and a mass density ([2]; 323.15 K, x2 = 0) of 1336.6 ± 0.8 kg/m3. The mass density ([2]; 323.15 K, x2 = 0.305) was 1307.3 ± 0.9 kg/m3, the mass density ([2]; 323.2 K, x2 = 0.755) was 1274.7 ± 1.9 kg/m3 and the mass density ([2]; 333.14 K, x2 = 0.755) was 1266.8 ± 1.9 kg/m3. It also gave a mass density ([2]; 333.15 K, x2 = 0) of 1317.8 ± 0.8 kg/m3, a mass density ([2]; 333.15 K, x2 = 0.5164) of 1281.1 ± 1.2 kg/m3 and a mass density ([2]; 333.16 K, x2 = 0.305) of 1296.4 ± 0.9 kg/m3. It also gave a mass density ([2]; 333.2 K, x2 = 0.099) of 1315.8 ± 0.8 kg/m3, an excess molar enthalpy ([3]; 298.15 K, x2 = 0.0555) of 0.0929 ± 0.00382 kcal/mol and an excess molar enthalpy ([3]; 298.15 K, x2 = 0.1114) of 0.15 ± 0.00574 kcal/mol. The excess molar enthalpy ([3]; 298.15 K, x2 = 0.1904) was 0.256 ± 0.00956 kcal/mol, the excess molar enthalpy ([3]; 298.15 K, x2 = 0.3199) was 0.288 ± 0.0105 kcal/mol and the excess molar enthalpy ([3]; 298.15 K, x2 = 0.4137) was 0.273 ± 0.01 kcal/mol. The excess molar enthalpy ([3]; 298.15 K, x2 = 0.4847) was 0.25 ± 0.00932 kcal/mol, the excess molar enthalpy ([3]; 298.15 K, x2 = 0.5852) was 0.208 ± 0.00789 kcal/mol and the excess molar enthalpy ([3]; 298.15 K, x2 = 0.7016) was 0.155 ± 0.00598 kcal/mol. For the same compound, the excess molar enthalpy ([3]; 298.15 K, x2 = 0.79) was 0.112 ± 0.00454 kcal/mol, the excess molar enthalpy ([3]; 298.15 K, x2 = 0.9039) was 0.0506 ± 0.00234 kcal/mol and the excess molar enthalpy ([3]; 323.15 K, x2 = 0.0555) was 0.0535 ± 0.00239 kcal/mol. For the same compound, the excess molar enthalpy ([3]; 323.15 K, x2 = 0.1114) was 0.0933 ± 0.00382 kcal/mol, the excess molar enthalpy ([3]; 323.15 K, x2 = 0.1904) was 0.172 ± 0.00669 kcal/mol and the excess molar enthalpy ([3]; 323.15 K, x2 = 0.2477) was 0.181 ± 0.00693 kcal/mol. For the same compound, the excess molar enthalpy ([3]; 323.15 K, x2 = 0.3199) was 0.185 ± 0.00693 kcal/mol, the excess molar enthalpy ([3]; 323.15 K, x2 = 0.4137) was 0.171 ± 0.00645 kcal/mol and the excess molar enthalpy ([3]; 323.15 K, x2 = 0.4847) was 0.155 ± 0.00598 kcal/mol. For the same compound, the excess molar enthalpy ([3]; 323.15 K, x2 = 0.5852) was 0.126 ± 0.00502 kcal/mol, the excess molar enthalpy ([3]; 323.15 K, x2 = 0.7016) was 0.0908 ± 0.00382 kcal/mol and the excess molar enthalpy ([3]; 323.15 K, x2 = 0.79) was 0.0632 ± 0.00287 kcal/mol. The excess molar enthalpy ([3]; 323.15 K, x2 = 0.9216) was 0.0233 ± 0.00148 kcal/mol.
